Reference: ChEMBL document CHEMBL1201862, “PubChem BioAssay data set” (2004)
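The compound was tested at five concentrations on cells cultured in 96-well plates, with a 48-hour exposure period. At the GI50, growth is halved.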 Calls of active or inactive are those of the source. Rule as the data show it: active = GI50 up to about 1.1 µM and inactive = higher.

Key:
Test in all cases: NCI anticancer screen, dose series, 48 h
[1] = test system: NCI-H226
[2] = test system: EKVX
[3] = test system: SK-MEL-5
[4] = test system: U-251
[5] = test system: SK-MEL-2
[6] = test system: MOLT-4
[7] = test system: TK-10
[8] = test system: UACC-257
[9] = test system: M14
[10] = test system: HOP-92
[11] = test system: SR
[12] = test system: A498
[13] = test system: SK-OV-3
[14] = test system: RPMI-8226
[15] = test system: HT-29
[16] = test system: UACC-62
[17] = test system: NCI/ADR-RES
[18] = test system: HCT-116
[19] = test system: SW-620
[20] = test system: K562
[21] = test system: CCRF-CEM
[22] = test system: MCF7
[23] = test system: SF-268
[24] = test system: T47D
[25] = test system: SF-295
[26] = test system: NCI-H23
[27] = test system: MDA-MB-231
[28] = test system: A549
[29] = test system: PC-3
[30] = test system: OVCAR-3
[31] = test system: HOP-62
[32] = test system: BT-549
[33] = test system: MDA-MB-435
[34] = test system: OVCAR-8
[35] = test system: SNB-75
[36] = test system: SK-MEL-28
[37] = test system: RXF 393
[38] = test system: DU-145
[39] = test system: NCI-H460
[40] = test system: SNB-19
[41] = test system: NCI-H522
[42] = test system: HL-60
[43] = test system: KM12
[44] = test system: OVCAR-4
[45] = test system: SN12C
[46] = test system: Hs-578T
[47] = test system: CAKI-1
[48] = test system: LOX IMVI
[49] = test system: 786-0
[50] = test system: Malme-3M
[51] = test system: UO-31
[52] = test system: HCT-15
[53] = test system: SF-539
[54] = test system: ACHN
[55] = test system: HCC 2998
[56] = test system: COLO 205
[57] = test system: OVCAR-5
[58] = test system: MDA-N
[59] = test system: IGROV-1

Q: Which results are given for `c1ccc(C2=C(c3ccccc3)Sc3nnc(CCCCCCCCc4nnc5n4NC(c4ccccc4)=C(c4ccccc4)S5)n3N2)cc1`?
A: GI50 [1]: > 100 µM (inactive); GI50 [2]: 35.5 µM (inactive); GI50 [3]: 33.6 µM (inactive); GI50 [4]: 45.2 µM (inactive); GI50 [5]: 63 µM (inactive); GI50 [6]: 17.9 µM (inactive); GI50 [7]: 44.2 µM (inactive); GI50 [8]: > 100 µM (inactive); GI50 [9]: 29.8 µM (inactive); GI50 [10]: 54.8 µM (inactive); GI50 [11]: 29.9 µM (inactive); GI50 [12]: > 100 µM (inactive); GI50 [13]: > 100 µM (inactive); GI50 [14]: 27.4 µM (inactive); GI50 [15]: 31.8 µM (inactive); GI50 [16]: 46.6 µM (inactive); GI50 [17]: 45.8 µM (inactive); GI50 [18]: 25.8 µM (inactive); GI50 [19]: > 100 µM (inactive); GI50 [20]: 25 µM (inactive); GI50 [21]: 20.9 µM (inactive); GI50 [22]: 35.8 µM (inactive); GI50 [23]: 83 µM (inactive); GI50 [24]: 24.7 µM (inactive); GI50 [25]: 46.7 µM (inactive); GI50 [26]: 49 µM (inactive); GI50 [27]: 95.9 µM (inactive); GI50 [28]: 34.7 µM (inactive); GI50 [29]: 41.4 µM (inactive); GI50 [30]: 39.8 µM (inactive); GI50 [31]: > 100 µM (inactive); GI50 [32]: 46.6 µM (inactive); GI50 [33]: 34.9 µM (inactive); GI50 [34]: 48.6 µM (inactive); GI50 [35]: 63.2 µM (inactive); GI50 [36]: > 100 µM (inactive); GI50 [37]: 50.4 µM (inactive); GI50 [38]: > 100 µM (inactive); GI50 [39]: 48.9 µM (inactive); GI50 [40]: 54.6 µM (inactive); GI50 [41]: 51.2 µM (inactive); GI50 [42]: 17.7 µM (inactive); GI50 [43]: 44.1 µM (inactive); GI50 [44]: 39.2 µM (inactive); GI50 [45]: 77.3 µM (inactive); GI50 [46]: 73.5 µM (inactive); GI50 [47]: > 100 µM (inactive); GI50 [48]: 48.2 µM (inactive); GI50 [49]: 61 µM (inactive); GI50 [50]: > 100 µM (inactive); GI50 [51]: 27.4 µM (inactive); GI50 [52]: 37.5 µM; GI50 [53]: > 100 µM (inactive); GI50 [54]: 53.8 µM (inactive); GI50 [55]: 85.5 µM (inactive); GI50 [56]: 45.3 µM (inactive); GI50 [57]: > 100 µM (inactive)

Q: How did the GI50 [1] turn out when `O=C1CC2(CCNCC2)C(=O)N1N1CCOCC1` was run?
A: Its GI50 is > 100 µM (inactive).

Q: And the GI50 [2]?
A: Its GI50 is > 100 µM (inactive).

Q: And the GI50 [3]?
A: The GI50 was > 100 µM (inactive).

Q: And the GI50 [4]?
A: Its GI50 is > 100 µM (inactive).

Q: What about the GI50 [5] of the same compound?
A: Its GI50 is > 100 µM (inactive).

Q: And the GI50 [6]?
A: Its GI50 is > 100 µM (inactive).

Q: And the GI50 [7]?
A: Its GI50 is > 100 µM (inactive).

Q: And the GI50 [8]?
A: Its GI50 is > 100 µM (inactive).

Q: What about the GI50 [9] of the same compound?
A: Its GI50 is > 100 µM (inactive).

Q: And the GI50 [10]?
A: Its GI50 is > 100 µM (inactive).

Q: What about the GI50 [11] of the same compound?
A: Its GI50 is > 100 µM (inactive).

Q: What about the GI50 [12] of the same compound?
A: Its GI50 is > 100 µM (inactive).

Q: What about the GI50 [13] of the same compound?
A: The GI50 was > 100 µM (inactive).

Q: And the GI50 [14]?
A: The GI50 was > 100 µM (inactive).

Q: What about the GI50 [15] of the same compound?
A: The GI50 was > 100 µM (inactive).

Q: And the GI50 [16]?
A: Its GI50 is > 100 µM (inactive).

Q: What about the GI50 [17] of the same compound?
A: The GI50 was > 100 µM (inactive).

Q: And the GI50 [18]?
A: The GI50 was > 100 µM (inactive).

Q: What about the GI50 [19] of the same compound?
A: The GI50 was > 100 µM (inactive).

Q: And the GI50 [20]?
A: The GI50 was > 100 µM (inactive).

Q: And the GI50 [21]?
A: The GI50 was > 100 µM (inactive).

Q: What about the GI50 [22] of the same compound?
A: Its GI50 is > 100 µM (inactive).

Q: What about the GI50 [23] of the same compound?
A: The GI50 was > 100 µM (inactive).

Q: What about the GI50 [24] of the same compound?
A: The GI50 was > 100 µM (inactive).

Q: What about the GI50 [58] of the same compound?
A: The GI50 was > 100 µM (inactive).

Q: What about the GI50 [25] of the same compound?
A: The GI50 was > 100 µM (inactive).

Q: And the GI50 [26]?
A: Its GI50 is > 100 µM (inactive).

Q: And the GI50 [27]?
A: Its GI50 is > 100 µM (inactive).

Q: What about the GI50 [28] of the same compound?
A: The GI50 was > 100 µM (inactive).

Q: What about the GI50 [29] of the same compound?
A: Its GI50 is > 100 µM (inactive).

Q: What about the GI50 [30] of the same compound?
A: The GI50 was > 100 µM (inactive).

Q: And the GI50 [31]?
A: Its GI50 is > 100 µM (inactive).

Q: And the GI50 [32]?
A: The GI50 was > 100 µM (inactive).

Q: What about the GI50 [34] of the same compound?
A: Its GI50 is > 100 µM (inactive).

Q: What about the GI50 [35] of the same compound?
A: Its GI50 is > 100 µM (inactive).

Q: And the GI50 [36]?
A: Its GI50 is > 100 µM (inactive).

Q: What about the GI50 [37] of the same compound?
A: Its GI50 is > 100 µM (inactive).

Q: And the GI50 [38]?
A: The GI50 was > 100 µM (inactive).

Q: And the GI50 [39]?
A: The GI50 was > 100 µM (inactive).

Q: And the GI50 [40]?
A: Its GI50 is > 100 µM (inactive).

Q: And the GI50 [41]?
A: The GI50 was > 100 µM (inactive).

Q: What about the GI50 [42] of the same compound?
A: The GI50 was > 100 µM (inactive).

Q: And the GI50 [43]?
A: Its GI50 is > 100 µM (inactive).

Q: What about the GI50 [44] of the same compound?
A: The GI50 was > 100 µM (inactive).

Q: And the GI50 [45]?
A: Its GI50 is > 100 µM (inactive).

Q: What about the GI50 [46] of the same compound?
A: Its GI50 is > 100 µM (inactive).

Q: And the GI50 [47]?
A: Its GI50 is > 100 µM (inactive).

Q: And the GI50 [48]?
A: The GI50 was > 100 µM (inactive).

Q: What about the GI50 [49] of the same compound?
A: The GI50 was > 100 µM (inactive).

Q: What about the GI50 [50] of the same compound?
A: Its GI50 is > 100 µM (inactive).

Q: And the GI50 [51]?
A: Its GI50 is > 100 µM (inactive).

Q: And the GI50 [52]?
A: Its GI50 is over 100 µM.

Q: What about the GI50 [53] of the same compound?
A: Its GI50 is > 100 µM (inactive).

Q: What about the GI50 [59] of the same compound?
A: Its GI50 is > 100 µM (inactive).

Q: And the GI50 [54]?
A: Its GI50 is > 100 µM (inactive).

Q: What about the GI50 [55] of the same compound?
A: The GI50 was > 100 µM (inactive).

Q: What about the GI50 [56] of the same compound?
A: Its GI50 is > 100 µM (inactive).

Q: What about the GI50 [57] of the same compound?
A: The GI50 was > 100 µM (inactive).
